# Activity calls are given as the source filed them. The calls are words filed in the database; no cut-off is given here.
# Tests used:
# [1] = test system: MDA-MB-231; assay: Inhibition of cell proliferation in human MDA-MB-231 cells by MTT assay; type: functional, cell-based
# [2] = Inhibition of cell proliferation in HUVEC cells by MTT assay; type: toxicity, cell-based; conditions: human
# [3] = test system: HCC1806; assay: Inhibition of cell proliferation in human HCC1806 cells by MTT assay; type: functional, cell-based
# [4] = test system: HCC1937; assay: Inhibition of cell proliferation in human HCC1937 cells by MTT assay; type: functional, cell-based
# [5] = Inhibition of cell proliferation in human HL7702 cells by MTT assay; type: toxicity, cell-based; conditions: HL7702 (L02) cells
# [6] = target: RNA; assay: Binding affinity to biotin-labeled G1 of MDM2 (unknown origin) immobilized on SA biosensor assessed as dissociation constant by BLI assay; type: nucleic-acid assay, Homo sapiens
# [7] = test system: Quadruplex DNA; assay: Binding affinity to c-myc DNA G-quadruplex (unknown origin) assessed as thermal stability by measuring increase in melting temperature by FRET assay; type: nucleic-acid assay
# [8] = test system: RNA; assay: Binding affinity to FAM/TAMRA-labeled G1 of MDM2 (unknown origin) assessed as thermal stability by measuring increase in melting temperature by FRET assay; type: nucleic-acid assay; conditions: Homo sapiens
# [9] = test system: RNA; assay: Binding affinity to FAM/TAMRA-labeled G5 of MDMX (unknown origin) assessed as thermal stability by measuring increase in melting temperature by FRET assay; type: nucleic-acid assay; conditions: Homo sapiens
# [10] = target: RNA; assay: Binding affinity to biotin-labeled G5 of MDMX (unknown origin) immobilized on SA biosensor assessed as dissociation constant by BLI assay; type: nucleic-acid assay, Homo sapiens
# [11] = test system: Quadruplex RNA; assay: Binding affinity to NRAS RNA G-quadruplex (unknown origin) assessed as thermal stability by measuring increase in melting temperature by FRET assay; type: nucleic-acid assay
# [12] = target: Quadruplex DNA; assay: Binding affinity to biotin-labeled c-myc DNA G-quadruplex (unknown origin) immobilized on SA biosensor assessed as dissociation constant by BLI assay; type: nucleic-acid assay
# [13] = test system: HCC1937; assay: Inhibition of cell proliferation in siMDMX-treated human HCC1937 cells by MTT assay; type: functional, cell-based
# [14] = test system: HCC1937; assay: Downregulation of MDM2 level in human HCC1937 cells upto 6 uM incubated for 24 hrs by Western blot analysis; type: functional, cell-based
# [15] = target: dsDNA; assay: Binding affinity to biotin-labeled ds26 DNA (unknown origin) immobilized on SA biosensor assessed as dissociation constant by BLI assay; type: nucleic-acid assay
# [16] = test system: HCC1937; assay: Inhibition of cell proliferation in Nutlin3a-treated human HCC1937 cells by MTT assay; type: functional, cell-based
# [17] = test system: RNA; assay: Binding affinity to TAMRA-labeled G1 mutant of MDM2 transfected in human HCC1937 cells at 3 uM incubated for 6 hrs by BG4 antibody based analysis; type: cell-based
# [18] = test system: RNA; assay: Inhibition of wild-type G1 of MDM2 expressed in human HCC1937 cells upto 3 uM incubated for 24 hrs by luciferase reporter assay; type: cell-based
# [19] = test system: RNA; assay: Inhibition of G1 mutant of MDM2 expressed in human HCC1937 cells upto 3 uM incubated for 24 hrs by luciferase reporter assay; type: cell-based
# [20] = test system: HCC1937; assay: Downregulation of MDM2 mRNA level in human HCC1937 cells upto 3 uM by qPCR analysis; type: functional, cell-based
# [21] = test system: RNA; assay: Binding affinity to TAMRA-labeled wild-type G1 of MDM2 transfected in human HCC1937 cells at 3 uM incubated for 6 hrs by BG4 antibody based analysis; type: cell-based
# [22] = test system: RNA; assay: Induction of G5 mutant of MDMX expressed in human HCC1937 cells upto 3 uM incubated for 24 hrs by luciferase reporter assay; type: cell-based
# [23] = test system: RNA; assay: Binding affinity to G5 of MDMX (unknown origin) at 10 uM by CD spectrum assay; type: nucleic-acid assay; conditions: Homo sapiens, filed as activator
# [24] = test system: HCC1937; assay: Upregulation of MDMX mRNA level in human HCC1937 cells upto 3 uM by qPCR analysis; type: functional, cell-based
# [25] = test system: HCC1937; assay: Inhibition of apoptosis in siMDM2-treated human HCC1937 cells at 6 uM (reference value: 55.8 %); type: functional
# [26] = test system: HCC1937; assay: Effect on DNAPKcs phosphorylation at Ser2056 in human HCC1937 cells upto 6 uM incubated for 24 hrs by Western blot analysis; type: functional, cell-based
# [27] = test system: RNA; assay: Binding affinity to TAMRA-labeled G5 mutant of MDMX transfected in human HCC1937 cells at 3 uM incubated for 6 hrs by BG4 antibody based analysis; type: cell-based
# [28] = test system: HCC1937; assay: Upregulation of MDMX level in siMDMX-treated human HCC1937 cells upto 6 uM by Western blot analysis; type: functional, cell-based
# [29] = test system: HCC1937; assay: Induction of apoptosis in human HCC1937 cells assessed as increase in cleaved caspase-3 level upto 6 uM incubated for 24 hrs by Western blot analysis; type: functional, cell-based
# [30] = test system: RNA; assay: Binding affinity to G1 of MDM2 (unknown origin) at 10 uM by CD spectrum assay; type: nucleic-acid assay; conditions: Homo sapiens
# [31] = test system: HCC1937; assay: Inhibition of cell proliferation in human HCC1937 cells assessed as decrease in cell survival at 6 uM relative to control; type: functional
# [32] = test system: HCC1937; assay: Upregulation of MDMX level in human HCC1937 cells upto 6 uM incubated for 24 hrs by Western blot analysis; type: functional, cell-based
# [33] = test system: HCC1937; assay: Effect on cell proliferation in human HCC1937 cells overexpressing BLM assessed as cell survival at 6 uM relative to control; type: functional; conditions: read-out: Activity
# [34] = test system: HCC1937; assay: Upregulation of MDMX level in siMDM2-treated human HCC1937 cells upto 6 uM by Western blot analysis; type: functional, cell-based
# [35] = test system: HCC1937; assay: Inhibition of cell proliferation in siMDM2-treated human HCC1937 cells by MTT assay; type: functional, cell-based; conditions: dose <= 6.0 µM
# [36] = test system: HCC1937; assay: Effect on H2AX phosphorylation at Ser139 in human HCC1937 cells upto 6 uM incubated for 24 hrs by Western blot analysis; type: functional, cell-based
# [37] = test system: HCC1937; assay: Induction of apoptosis in siMDMX-treated human HCC1937 cells at 6 uM (reference value: 55.8 %); type: functional
# [38] = test system: HCC1937; assay: Induction of apoptosis in siMDMX-treated human HCC1937 cells assessed as increase in cleaved caspase-3 level upto 6 uM by Western blot analysis; type: functional, cell-based
# [39] = target: DNA; assay: Binding affinity to biotin-labeled ss26 DNA (unknown origin) immobilized on SA biosensor assessed as dissociation constant by BLI assay; type: nucleic-acid assay
# [40] = test system: HCC1937; assay: Downregulation of MDM2 level in siMDMX-treated human HCC1937 cells upto 6 uM by Western blot analysis; type: functional, cell-based
# [41] = test system: RNA; assay: Binding affinity to TAMRA-labeled wild-type G5 of MDMX transfected in human HCC1937 cells at 3 uM incubated for 6 hrs by BG4 antibody based analysis; type: cell-based; conditions: filed as activator
# [42] = test system: HCC1937; assay: Induction of apoptosis in siMDM2-treated human HCC1937 cells assessed as increase in cleaved caspase-3 level upto 6 uM by Western blot analysis; type: functional, cell-based
# [43] = target: Quadruplex RNA; assay: Binding affinity to biotin-labeled NRAS RNA G-quadruplex (unknown origin) immobilized on SA biosensor assessed as dissociation constant by BLI assay; type: nucleic-acid assay
# [44] = test system: RNA; assay: Induction of wild-type G5 of MDMX expressed in human HCC1937 cells upto 3 uM incubated for 24 hrs by luciferase reporter assay; type: cell-based; conditions: filed as activator
# [45] = test system: HCC1937; assay: Downregulation of MDMX level in human HCC1937 cells upto 3 uM incubated for 24 hrs by Western blot analysis; type: functional, cell-based
# [46] = test system: HCC1937; assay: Downregulation of MDM2 level in human HCC1937 cells upto 3 uM incubated for 24 hrs by Western blot analysis; type: functional, cell-based
# [47] = test system: HCC1937; assay: Effect on cell proliferation in human HCC1937 cells overexpressing BLM assessed as cell survival at 6 uM; type: functional, cell-based
# [48] = test system: RNA; assay: Inhibition of wild-type G1 of MDM2 expressed in human HCC1937 cells upto 1 uM incubated for 24 hrs by luciferase reporter assay; type: cell-based
# [49] = test system: RNA; assay: Induction of wild-type G5 of MDMX expressed in human HCC1937 cells upto 1 uM incubated for 24 hrs by luciferase reporter assay; type: cell-based; conditions: filed as activator
smiles,measurement,setting,value
N=C(N)SCC1c2ccccc2CCc2ccccc21,IC50,[1],48 µM
same,IC50,[2],> 50 µM
same,IC50,[3],> 50 µM
same,IC50,[4],> 50 µM
same,IC50,[5],> 50 µM
N=C(N)SCc1c2ccccc2cc2ccccc12,IC50,[1],6 µM
same,IC50,[2],9.6 µM
same,IC50,[3],12.5 µM
same,IC50,[4],16.8 µM
same,IC50,[5],20.7 µM
Cc1c2ccccc2c(C[P+](c2ccccc2)(c2ccccc2)c2ccccc2)c2ccccc12,Kd,[6],9.8 µM
same,ΔTm,[7],17 °C
same,ΔTm,[8],25 °C
same,ΔTm,[9],22 °C
same,Kd,[10],7.3 µM
same,ΔTm,[11],-0.4 °C
same,Kd,[12],> 25 µM
N=C(N)SCc1cccc2ccccc12,IC50,[1],> 50 µM
same,IC50,[2],> 50 µM
same,IC50,[3],> 50 µM
same,IC50,[4],> 50 µM
same,IC50,[5],> 50 µM
N=C(N)SCc1c2ccccc2nc2ccccc12,IC50,[1],> 50 µM
same,IC50,[2],> 50 µM
same,IC50,[3],> 50 µM
same,IC50,[4],> 50 µM
same,IC50,[5],> 50 µM
Brc1c2ccccc2c(C[P+](c2ccccc2)(c2ccccc2)c2ccccc2)c2ccccc12.[Br-],inhibition,[13],Active
same,Activity,[14],Active
same,Kd,[15],23.5 µM
same,inhibition,[16],inactive
same,Activity,[17],inactive
same,ΔTm,[7],18 °C
same,inhibition,[18],Active
same,inhibition,[19],inactive
same,ΔTm,[8],33 °C
same,Activity,[20],Active
same,Activity,[21],Active
same,Activity,[22],inactive
same,Activity,[23],Active
same,Activity,[24],Active
same,inhibition at 6 µM,[25],30.6%
same,Activity,[26],inactive
same,ΔTm,[9],30 °C
same,Activity,[27],inactive
same,Activity,[28],Active
same,Activity,[29],Active
same,Activity,[30],Active
same,inhibition at 6 µM,[31],27.7%
same,Activity,[32],Active
same,viability at 6 µM,[33],85.3%
same,ΔTm,[11],0.1 °C
same,Activity,[34],Active
same,inhibition,[35],inactive
same,Activity,[36],inactive
same,Activity,[37],~70.4%
same,Activity,[38],Active
same,Kd,[39],10.8 µM
same,Activity,[40],Active
same,Activity,[41],Active
same,Activity,[42],inactive
same,Kd,[12],15.6 µM
same,Kd,[43],24 µM
same,Activity,[44],Active
same,inhibition,[4]; dose <= 6.0 µM,Dose-Dependent Effect
Cc1c2ccccc2c(CSC(=N)N)c2ccccc12,Activity,[45],Active
same,IC50,[1],2.1 µM
same,Activity,[46],Active
same,IC50,[2],3.5 µM
same,Activity,[47],inactive
same,ΔTm,[11],-0.2 °C
same,IC50,[3],6.9 µM
same,IC50,[4],6.4 µM
same,IC50,[5],5 µM
N=C(N)SCc1ccc([N+](=O)[O-])cc1,IC50,[1],> 50 µM
same,IC50,[2],> 50 µM
same,IC50,[3],> 50 µM
same,IC50,[4],> 50 µM
same,IC50,[5],> 50 µM
Cc1ccc(CSC(=N)N)cc1,IC50,[1],> 50 µM
same,IC50,[2],> 50 µM
same,IC50,[3],> 50 µM
same,IC50,[4],> 50 µM
same,IC50,[5],> 50 µM
C[n+]1ccc(-c2c3nc(c(-c4cc[n+](C)cc4)c4ccc([nH]4)c(-c4cc[n+](C)cc4)c4ccc([nH]4)c(-c4cc[n+](C)cc4)c4nc2C=C4)C=C3)cc1,inhibition,[48],Active
same,Activity,[49],Active
N=C(N)SCc1ccc2ccccc2c1,IC50,[1],> 50 µM
same,IC50,[2],> 50 µM
same,IC50,[3],> 50 µM
same,IC50,[4],> 50 µM
same,IC50,[5],> 50 µM
N=C(N)SCc1c2ccccc2c(Br)c2ccccc12,IC50,[1],8.2 µM
same,IC50,[2],20.3 µM
same,IC50,[3],3.5 µM
same,IC50,[4],6.4 µM
same,IC50,[5],24.5 µM
c1ccc([P+](Cc2c3ccccc3cc3ccccc23)(c2ccccc2)c2ccccc2)cc1,Kd,[6],10.6 µM
same,ΔTm,[7],16.5 °C
same,ΔTm,[8],24 °C
same,ΔTm,[9],22 °C
same,Kd,[10],8.8 µM
same,ΔTm,[11],0.2 °C
same,Kd,[12],> 25 µM
